Experimental data reported in the NIST ThermoML archive (doi:10.1016/j.jct.2006.07.021).

Test: xn = mol fraction of the nth substance listed
Details: 101 kPa, Liquid, Pycnometric method

NC=O [formamide] + CC(O)CO
mass density [kg/m3]
Details	293.15 K	298.15 K	303.15 K	308.15 K	313.15 K	318.15 K
x1 = 0.0567	1038.29	1034.56	1030.82	1027.12	1023.41	1019.67
x1 = 0.1191	1040.52	1036.78	1033.03	1029.25	1025.52	1021.77
x1 = 0.1881	1043.47	1039.69	1035.91	1032.11	1028.33	1024.51
x1 = 0.2649	1047.35	1043.5	1039.65	1035.85	1032.01	1028.19
x1 = 0.3409	1051.67	1047.79	1043.96	1040.09	1036.22	1032.37
x1 = 0.3904	1054.79	1050.91	1047.02	1043.15	1039.28	1035.44
x1 = 0.4478	1058.92	1055.02	1051.08	1047.15	1043.24	1039.31
x1 = 0.4936	1062.42	1058.49	1054.56	1050.68	1046.76	1042.86
x1 = 0.5578	1068.01	1064.07	1060.1	1056.12	1052.18	1048.22
x1 = 0.6262	1074.52	1070.55	1066.6	1062.64	1058.66	1054.73
x1 = 0.6838	1080.96	1076.95	1072.95	1068.91	1064.9	1060.87
x1 = 0.7544	1089.83	1085.77	1081.67	1077.58	1073.51	1069.44
x1 = 0.8295	1100.75	1096.63	1092.5	1088.36	1084.26	1080.16
x1 = 0.8818	1109.7	1105.53	1101.4	1097.27	1093.1	1088.94
x1 = 0.9392	1120.57	1116.44	1112.31	1108.16	1104.04	1099.88
x1 = 1	1133	1129	1125	1121	1117	1113

OCCO [1,2-ethanediol] + NC=O
x2 = 0
Details	mass density [kg/m3]
293.15 K	1113.57
303.15 K	1106.51
313.15 K	1099.45
